Experimental findings from ChEMBL document CHEMBL1140259, “Isomeric thiazole derivatives as ligands for the neuropeptide Y5 receptor” (Bioorg Med Chem Lett, 2005) are described below.

Each structure is given as a SMILES string. pIC50: −log10 of the molar value.

For the first assay, the target named is T1, Neuropeptide Y receptor type 5 (Mus musculus, UniProt O70342).
T1 sequence (O70342 whole entry): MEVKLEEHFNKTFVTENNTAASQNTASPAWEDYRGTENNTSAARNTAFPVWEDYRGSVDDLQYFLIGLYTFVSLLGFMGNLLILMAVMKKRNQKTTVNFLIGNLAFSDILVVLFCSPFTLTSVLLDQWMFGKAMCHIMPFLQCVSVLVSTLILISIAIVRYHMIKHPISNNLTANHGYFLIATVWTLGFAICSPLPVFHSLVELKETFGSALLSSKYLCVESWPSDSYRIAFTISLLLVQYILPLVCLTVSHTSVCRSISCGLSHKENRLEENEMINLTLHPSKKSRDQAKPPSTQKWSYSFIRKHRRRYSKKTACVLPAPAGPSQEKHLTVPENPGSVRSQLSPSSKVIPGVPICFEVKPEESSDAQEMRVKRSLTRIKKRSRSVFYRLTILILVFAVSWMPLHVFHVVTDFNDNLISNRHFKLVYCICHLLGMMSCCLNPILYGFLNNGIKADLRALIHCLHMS
Nature of the assay: Inhibitory concentration against mouse NPY5 receptor […].
`COc1ccc(OC)c(S(=O)(=O)NCCCNc2ncc(C(=O)c3ccccc3C)s2)c1`: the pIC50 was 8.80.
On the same count and under the same terms, in the case of `Cc1ccccc1C(=O)c1csc(NCCCNS(=O)(=O)c2cccc(F)c2)n1` it was 7.19; in that of `Cc1ccccc1C(=O)c1cnc(NCCCNS(=O)(=O)c2ccc(F)cc2)s1`, 5.00; in that of `Cc1ccccc1C(=O)c1cnc(NCCCNS(=O)(=O)c2cccc(F)c2)s1`, 8.26.
`Cc1ccccc1C(=O)c1cnc(NCCCNS(=O)(=O)c2cc(C(F)(F)F)ccc2Cl)s1`: the pIC50 was 9.07.
On the same count and under the same terms, the same measure for `Cc1ccccc1C(=O)c1cnc(NCCCNS(=O)(=O)c2cccs2)s1`: 9.00.
Take `COc1ccc(OC)c(S(=O)(=O)NCCCNc2nc(C(=O)c3ccccc3C)cs2)c1`: the pIC50 was 7.77.
The same measure, in the same setting: the same measure for `COc1cccc(S(=O)(=O)NCCCNc2ncc(C(=O)c3ccccc3C)s2)c1`: 7.96.
Still for that read-out and setting: the same measure for `Cc1ccccc1C(=O)c1csc(NCCCNS(=O)(=O)c2cc(C(F)(F)F)ccc2Cl)n1`: 8.05; for `Cc1ccccc1C(=O)c1csc(NCCCNS(=O)(=O)c2cccs2)n1`: 7.96; for `COc1ccc(C)cc1S(=O)(=O)NCCCNc1ncc(C(=O)c2ccccc2C)s1`: 9.15.

A further assay deals with T2, Neuropeptide Y receptor type 5 (Mus musculus) (UniProt O70342).
T2 sequence (whole entry): T1 sequence (O70342 whole entry)
As to the kind of experiment: Percent inhibition against mouse NPY5 receptor at 1 um.
For the molecule `COc1cccc(S(=O)(=O)NCCCNc2nc(C(=O)c3ccccc3C)cs2)c1`, the inhibition worked out at 12%.
Still for that read-out and setting: in the case of `Cc1ccccc1C(=O)c1csc(NCCCNS(=O)(=O)c2ccc(F)cc2)n1` it was 16%.
